Data as given in publication PMC5762315, “Inhibition of polo-like kinase 4 (PLK4): a new therapeutic option for rhabdoid tumors and pediatric medulloblastoma” (Oncotarget, 2017).
Values joined by “and” are separate entries in the source; they are usually repeats but may differ in a detail not shown here. Equal entries are not always repeated.

Key:
Experiment in all cases: biochemical
Format in all cases: biochemical
[1] = target: various kinases (Homo sapiens, UniProt O75116); details: kinase ROCK2; ZLYTE
[2] = target: various kinases (Homo sapiens, UniProt P54764); details: EPHA4
[3] = target: various kinases (Homo sapiens, UniProt P31751); details: AKT2 (PKB beta)
[4] = target: various kinases (Homo sapiens, UniProt P51813); details: BMX
[5] = target: various kinases (Homo sapiens, UniProt Q9HCP0); details: CSNK1G1 (CK1 gamma 1)
[6] = target: various kinases (Homo sapiens, UniProt Q13164); details: MAPK7 (ERK5)
[7] = target: various kinases (Homo sapiens, UniProt P36896); details: ACVR1B (ALK4)
[8] = target: various kinases (Homo sapiens, UniProt Q16816); details: PHKG1
[9] = target: various kinases (Homo sapiens, UniProt Q8N752); details: CSNK1A1L
[10] = target: various kinases (Homo sapiens, UniProt P31749); details: AKT1 (PKB alpha)
[11] = target: various kinases (Homo sapiens, UniProt P51451); details: BLK
[12] = target: various kinases (Homo sapiens, UniProt P49759); details: CLK1
[13] = target: various kinases (Homo sapiens, UniProt P53778); details: MAPK12 (p38 gamma)
[14] = target: various kinases (Homo sapiens, UniProt Q00535)
[15] = target: various kinases (Homo sapiens, UniProt P08581, Y1235D); details: MET (cMet) Y1235D
[16] = target: various kinases (Homo sapiens, UniProt Q86Z02); details: HIPK1 (Myak)
[17] = target: various kinases (Homo sapiens, UniProt P07949, V804L); details: kinase RET V804L; ZLYTE
[18] = target: various kinases (Homo sapiens, UniProt Q9NR20); details: DYRK4
[19] = target: various kinases (Homo sapiens, UniProt P34947); details: GRK5
[20] = target: various kinases (Homo sapiens, UniProt Q9HC98); details: NEK6
[21] = target: various kinases (Homo sapiens, UniProt P52333); details: JAK3
[22] = target: various kinases (Homo sapiens, UniProt P35626); details: ADRBK2 (GRK3)
[23] = target: T1, various kinases (Homo sapiens, UniProt Q96BR1); details: kinase SGKL (SGK3); ZLYTE
T1 sequence (Q96BR1 1-496): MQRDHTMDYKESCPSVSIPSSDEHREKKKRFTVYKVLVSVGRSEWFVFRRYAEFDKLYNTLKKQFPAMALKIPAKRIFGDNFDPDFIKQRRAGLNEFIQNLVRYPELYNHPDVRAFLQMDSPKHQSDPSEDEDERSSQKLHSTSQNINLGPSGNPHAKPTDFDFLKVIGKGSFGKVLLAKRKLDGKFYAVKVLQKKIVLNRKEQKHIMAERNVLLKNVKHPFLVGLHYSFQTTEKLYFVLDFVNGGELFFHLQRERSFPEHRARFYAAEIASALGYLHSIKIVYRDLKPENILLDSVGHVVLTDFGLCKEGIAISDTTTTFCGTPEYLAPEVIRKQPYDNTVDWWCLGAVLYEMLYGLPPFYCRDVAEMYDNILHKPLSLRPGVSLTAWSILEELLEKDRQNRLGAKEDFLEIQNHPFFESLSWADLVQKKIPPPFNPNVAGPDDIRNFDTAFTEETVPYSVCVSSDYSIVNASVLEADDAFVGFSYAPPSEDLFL

[24] = target: various kinases (Homo sapiens, UniProt P00519, T315I); details: ABL1 T315I
[25] = target: various kinases (Homo sapiens, UniProt Q9NQU5); details: PAK6
[26] = target: various kinases (Homo sapiens, UniProt Q52WX2); details: kinase SBK1; ZLYTE
[27] = target: various kinases (Homo sapiens, UniProt Q86V86); details: PIM3
[28] = target: various kinases (Homo sapiens, UniProt P11362); details: FGFR1
[29] = target: various kinases (Homo sapiens, UniProt P51812); details: kinase RPS6KA3 (RSK2); ZLYTE
[30] = target: various kinases (Homo sapiens, UniProt Q9H1R3); details: MYLK2 (skMLCK)
[31] = target: various kinases (Homo sapiens, UniProt O14757); details: CHEK1 (CHK1)
[32] = target: various kinases (Homo sapiens, UniProt P48729); details: CSNK1A1 (CK1 alpha 1)
Wherever % Inhibition Average is given: test concentration or dose not given here.
Wherever % Inhibition Duplicate #1 is given: test concentration or dose not given here.
Wherever % Inhibition Duplicate #2 is given: test concentration or dose not given here.

Chain of various kinases (Homo sapiens, UniProt P07949, V804L) (P07949 29-1114 V804L): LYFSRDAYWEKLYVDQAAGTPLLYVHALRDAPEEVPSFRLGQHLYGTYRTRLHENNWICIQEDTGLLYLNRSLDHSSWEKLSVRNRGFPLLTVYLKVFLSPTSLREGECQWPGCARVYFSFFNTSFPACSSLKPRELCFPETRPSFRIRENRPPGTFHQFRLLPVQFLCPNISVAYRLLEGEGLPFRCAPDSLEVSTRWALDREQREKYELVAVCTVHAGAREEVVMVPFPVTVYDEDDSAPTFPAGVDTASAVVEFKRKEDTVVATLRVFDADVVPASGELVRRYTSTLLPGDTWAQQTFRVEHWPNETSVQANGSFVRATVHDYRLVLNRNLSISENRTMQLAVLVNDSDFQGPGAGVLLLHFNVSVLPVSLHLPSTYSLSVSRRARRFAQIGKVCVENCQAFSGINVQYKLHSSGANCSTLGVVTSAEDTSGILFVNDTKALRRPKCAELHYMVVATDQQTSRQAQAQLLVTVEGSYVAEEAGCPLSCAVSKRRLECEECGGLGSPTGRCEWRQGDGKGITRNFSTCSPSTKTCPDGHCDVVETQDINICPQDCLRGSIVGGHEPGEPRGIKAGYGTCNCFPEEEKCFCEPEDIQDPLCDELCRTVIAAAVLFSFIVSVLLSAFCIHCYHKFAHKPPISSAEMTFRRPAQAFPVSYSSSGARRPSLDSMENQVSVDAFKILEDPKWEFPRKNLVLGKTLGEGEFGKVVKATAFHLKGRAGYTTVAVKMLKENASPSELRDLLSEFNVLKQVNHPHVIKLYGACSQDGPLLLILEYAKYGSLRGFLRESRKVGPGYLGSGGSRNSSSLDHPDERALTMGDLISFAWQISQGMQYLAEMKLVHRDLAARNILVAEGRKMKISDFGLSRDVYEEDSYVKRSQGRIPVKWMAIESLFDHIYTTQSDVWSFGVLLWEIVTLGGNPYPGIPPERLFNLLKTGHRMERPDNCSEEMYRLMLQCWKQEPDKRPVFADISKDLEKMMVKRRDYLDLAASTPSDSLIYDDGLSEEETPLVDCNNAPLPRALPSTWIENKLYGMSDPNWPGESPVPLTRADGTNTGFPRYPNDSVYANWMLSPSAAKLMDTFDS
Chain of various kinases (Homo sapiens, UniProt Q52WX2) (Q52WX2 whole entry): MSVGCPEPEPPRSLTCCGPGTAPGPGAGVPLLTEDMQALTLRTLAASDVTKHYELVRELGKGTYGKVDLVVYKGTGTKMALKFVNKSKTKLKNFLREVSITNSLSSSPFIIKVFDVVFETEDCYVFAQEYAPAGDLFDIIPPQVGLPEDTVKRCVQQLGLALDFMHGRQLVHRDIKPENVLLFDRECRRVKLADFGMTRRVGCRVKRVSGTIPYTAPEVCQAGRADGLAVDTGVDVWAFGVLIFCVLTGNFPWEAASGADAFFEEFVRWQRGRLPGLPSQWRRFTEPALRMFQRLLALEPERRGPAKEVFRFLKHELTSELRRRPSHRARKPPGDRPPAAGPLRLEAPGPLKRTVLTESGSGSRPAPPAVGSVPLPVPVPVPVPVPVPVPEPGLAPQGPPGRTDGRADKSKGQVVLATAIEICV
Chain of various kinases (Homo sapiens, UniProt P51812) (P51812 whole entry): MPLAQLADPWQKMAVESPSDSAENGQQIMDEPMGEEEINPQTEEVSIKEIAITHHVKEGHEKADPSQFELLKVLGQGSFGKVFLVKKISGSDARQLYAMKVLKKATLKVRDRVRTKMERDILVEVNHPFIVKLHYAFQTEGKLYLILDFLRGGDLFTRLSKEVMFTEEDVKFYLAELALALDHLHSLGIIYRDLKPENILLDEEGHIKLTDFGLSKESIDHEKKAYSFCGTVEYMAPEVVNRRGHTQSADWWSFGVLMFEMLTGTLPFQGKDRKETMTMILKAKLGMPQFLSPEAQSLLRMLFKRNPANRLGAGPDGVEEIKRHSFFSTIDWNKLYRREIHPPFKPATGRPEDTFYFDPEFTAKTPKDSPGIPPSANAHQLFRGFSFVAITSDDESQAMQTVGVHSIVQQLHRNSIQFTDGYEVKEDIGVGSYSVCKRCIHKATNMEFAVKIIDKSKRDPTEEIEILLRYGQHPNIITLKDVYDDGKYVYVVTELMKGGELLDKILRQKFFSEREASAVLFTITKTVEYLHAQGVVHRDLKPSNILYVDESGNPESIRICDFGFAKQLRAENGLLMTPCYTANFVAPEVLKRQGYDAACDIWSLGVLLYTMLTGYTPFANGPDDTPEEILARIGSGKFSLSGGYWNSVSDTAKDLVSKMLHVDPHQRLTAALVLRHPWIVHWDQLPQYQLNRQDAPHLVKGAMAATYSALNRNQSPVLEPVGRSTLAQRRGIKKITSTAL
Chain of various kinases (Homo sapiens, UniProt O75116) (O75116 whole entry): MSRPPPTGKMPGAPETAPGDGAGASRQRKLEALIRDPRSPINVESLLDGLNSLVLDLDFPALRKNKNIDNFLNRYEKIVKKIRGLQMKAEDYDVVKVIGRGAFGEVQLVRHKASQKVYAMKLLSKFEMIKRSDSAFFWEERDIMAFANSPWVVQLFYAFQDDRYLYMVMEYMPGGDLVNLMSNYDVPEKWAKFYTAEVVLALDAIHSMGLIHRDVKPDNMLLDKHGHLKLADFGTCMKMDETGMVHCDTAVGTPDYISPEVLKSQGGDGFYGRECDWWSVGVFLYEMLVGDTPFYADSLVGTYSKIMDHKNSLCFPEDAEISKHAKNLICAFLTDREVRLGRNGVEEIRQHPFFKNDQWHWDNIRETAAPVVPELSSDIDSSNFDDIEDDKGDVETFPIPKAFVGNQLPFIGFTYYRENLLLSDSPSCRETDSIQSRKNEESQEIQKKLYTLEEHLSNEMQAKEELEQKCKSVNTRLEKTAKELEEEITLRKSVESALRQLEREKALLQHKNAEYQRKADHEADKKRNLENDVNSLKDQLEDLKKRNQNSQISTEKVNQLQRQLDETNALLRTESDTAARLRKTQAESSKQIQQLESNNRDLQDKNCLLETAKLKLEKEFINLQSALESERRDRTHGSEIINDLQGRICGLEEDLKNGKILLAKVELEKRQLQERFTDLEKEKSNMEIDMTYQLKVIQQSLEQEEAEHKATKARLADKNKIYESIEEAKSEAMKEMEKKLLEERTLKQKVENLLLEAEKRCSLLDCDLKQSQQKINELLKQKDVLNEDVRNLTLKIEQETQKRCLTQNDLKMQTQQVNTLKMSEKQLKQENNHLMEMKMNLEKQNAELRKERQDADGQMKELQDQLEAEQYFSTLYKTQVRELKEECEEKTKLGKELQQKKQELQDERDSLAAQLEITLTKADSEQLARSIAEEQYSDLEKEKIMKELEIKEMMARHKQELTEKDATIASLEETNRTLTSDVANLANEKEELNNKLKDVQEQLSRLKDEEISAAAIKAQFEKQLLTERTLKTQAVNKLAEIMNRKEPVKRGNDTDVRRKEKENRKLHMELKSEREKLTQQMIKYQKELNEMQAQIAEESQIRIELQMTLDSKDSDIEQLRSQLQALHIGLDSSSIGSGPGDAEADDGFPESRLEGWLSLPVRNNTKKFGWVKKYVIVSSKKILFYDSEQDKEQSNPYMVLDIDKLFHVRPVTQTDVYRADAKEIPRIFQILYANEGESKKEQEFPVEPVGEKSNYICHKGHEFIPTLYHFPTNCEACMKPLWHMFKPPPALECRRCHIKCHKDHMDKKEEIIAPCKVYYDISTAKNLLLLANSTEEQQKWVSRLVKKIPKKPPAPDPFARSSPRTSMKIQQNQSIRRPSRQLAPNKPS
Chain of various kinases (Homo sapiens, UniProt Q00535) (Q00535 whole entry): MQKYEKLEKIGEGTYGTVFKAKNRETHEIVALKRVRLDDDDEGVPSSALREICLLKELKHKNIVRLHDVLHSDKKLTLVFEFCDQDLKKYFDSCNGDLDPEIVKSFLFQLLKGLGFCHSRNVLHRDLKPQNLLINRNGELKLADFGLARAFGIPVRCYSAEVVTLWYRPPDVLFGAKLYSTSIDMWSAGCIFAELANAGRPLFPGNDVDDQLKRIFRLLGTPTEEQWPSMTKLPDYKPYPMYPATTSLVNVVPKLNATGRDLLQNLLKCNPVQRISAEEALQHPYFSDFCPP
Chain of various kinases (Homo sapiens, UniProt P53778) (P53778 whole entry): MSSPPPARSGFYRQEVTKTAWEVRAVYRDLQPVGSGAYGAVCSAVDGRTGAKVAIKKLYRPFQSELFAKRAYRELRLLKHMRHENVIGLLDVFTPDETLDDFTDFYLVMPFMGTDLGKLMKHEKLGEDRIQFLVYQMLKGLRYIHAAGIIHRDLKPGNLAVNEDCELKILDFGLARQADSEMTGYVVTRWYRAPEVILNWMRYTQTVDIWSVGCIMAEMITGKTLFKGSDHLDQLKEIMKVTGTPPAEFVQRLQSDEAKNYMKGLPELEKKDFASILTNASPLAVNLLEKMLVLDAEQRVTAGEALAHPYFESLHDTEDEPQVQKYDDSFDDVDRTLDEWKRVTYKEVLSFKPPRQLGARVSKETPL
Chain of various kinases (Homo sapiens, UniProt Q9HCP0) (Q9HCP0 whole entry): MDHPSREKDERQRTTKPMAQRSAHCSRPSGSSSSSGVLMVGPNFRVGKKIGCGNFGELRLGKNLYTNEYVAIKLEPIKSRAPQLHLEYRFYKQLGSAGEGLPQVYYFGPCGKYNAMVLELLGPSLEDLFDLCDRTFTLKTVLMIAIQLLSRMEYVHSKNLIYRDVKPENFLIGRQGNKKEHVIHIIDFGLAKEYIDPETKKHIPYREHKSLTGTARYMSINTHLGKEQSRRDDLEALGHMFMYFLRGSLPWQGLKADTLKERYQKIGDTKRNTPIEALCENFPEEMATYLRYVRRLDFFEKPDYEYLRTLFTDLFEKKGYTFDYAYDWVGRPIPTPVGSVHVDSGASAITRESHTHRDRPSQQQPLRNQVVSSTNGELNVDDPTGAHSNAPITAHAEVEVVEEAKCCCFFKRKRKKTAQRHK
Chain of various kinases (Homo sapiens, UniProt Q9HC98) (Q9HC98 whole entry): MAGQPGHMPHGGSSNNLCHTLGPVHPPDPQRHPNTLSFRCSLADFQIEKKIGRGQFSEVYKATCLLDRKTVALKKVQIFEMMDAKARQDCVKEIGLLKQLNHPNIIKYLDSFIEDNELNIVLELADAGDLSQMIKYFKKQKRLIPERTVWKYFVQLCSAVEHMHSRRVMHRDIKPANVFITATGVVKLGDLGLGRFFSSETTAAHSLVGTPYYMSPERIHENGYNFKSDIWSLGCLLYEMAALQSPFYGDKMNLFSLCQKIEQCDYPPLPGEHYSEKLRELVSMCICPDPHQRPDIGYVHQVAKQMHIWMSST

## COc1ccc2c(c1)[C@]1(C[C@H]1c1ccc3c(/C=C/c4ccc(CN5C[C@@H](C)O[C@@H](C)C5)cc4)n[nH]c3c1)C(=O)N2 [CFI-400945]
[1]
  % Inhibition Average: 1%
  % Inhibition Duplicate #1: 1%
  % Inhibition Duplicate #2: 1%
[2]
  % Inhibition: 13% and 8%
[3]
  % Inhibition: 3%
[4]
  % Inhibition: 52% and 54%
[5]
  % Inhibition: -1% and 3%
[6]
  % Inhibition: -2% and 0%
[7]
  % Inhibition: -1% and -8%
[8]
  % Inhibition: 10% and 7%
[9]
  % Inhibition: 2% and 1%
[10]
  % Inhibition: 4% and 3%
[11]
  % Inhibition: 9% and 14%
[12]
  % Inhibition: -1%
[13]
  % Inhibition: -3% and -2%
[14]; CDK5/p25
  % Inhibition: 6% and 8%
[14]; CDK5/p35
  % Inhibition: 2% and 3%
[15]
  % Inhibition: 5% and 6%
[16]
  % Inhibition: 0%
[17]
  % Inhibition Average: 17%
  % Inhibition Duplicate #1: 14%
  % Inhibition Duplicate #2: 19%
[18]
  % Inhibition: 3% and 2%
[19]
  % Inhibition: 5% and 3%
[20]
  % Inhibition: 8% and 13%
[21]
  % Inhibition: 23%
[22]
  % Inhibition: 4% and 7%
[23]
  % Inhibition Average: 3%
  % Inhibition Duplicate #1: 4%
  % Inhibition Duplicate #2: 2%
[24]
  % Inhibition: 83% and 78%
  IC50: 0.0272 µM
[25]
  % Inhibition: 12% and 7%
[26]
  % Inhibition Average: 0%
  % Inhibition Duplicate #1: -1%
  % Inhibition Duplicate #2: 2%
[27]
  % Inhibition: -1% and 0%
[28]
  % Inhibition: 59% and 55%
[29]
  % Inhibition Average: 2%
  % Inhibition Duplicate #1: 1%
  % Inhibition Duplicate #2: 2%
[30]
  % Inhibition: 6% and 7%
[31]
  % Inhibition: 9% and 11%
[32]
  % Inhibition: 7%
